Data as given in PubChem BioAssay (NCI).
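96-well plates; 48 h exposure; 5 concentrations. Endpoints by linear interpolation between flanking doses. Not reached: highest tested concentration assigned. The concentration for full growth arrest is given as TGI.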

What was measured:
Experiment in all cases: DTP human tumour cell line panel, 48 h
IGROV1 ovarian = system: IGROV1 ovarian
DU-145 prostate = system: DU-145 prostate
OVCAR-8 ovarian = system: OVCAR-8 ovarian
RXF 393 renal = system: RXF 393 renal
HCT-116 colon = system: HCT-116 colon
HOP-62 NSCLC = system: HOP-62 NSCLC
NCI-H23 lung = system: NCI-H23 lung
LOX IMVI melanoma = system: LOX IMVI melanoma
MOLT-4 leukemia = system: MOLT-4 leukemia
PC-3 prostate = system: PC-3 prostate
SN12C renal = system: SN12C renal
M14 melanoma = system: M14 melanoma
CCRF-CEM leukemia = system: CCRF-CEM leukemia
MDA-N = system: MDA-N
UO-31 renal = system: UO-31 renal
786-0 renal = system: 786-0 renal
SF-539 CNS = system: SF-539 CNS
NCI/ADR-RES ovarian = system: NCI/ADR-RES ovarian
K-562 leukemia = system: K-562 leukemia
SNB-19 CNS = system: SNB-19 CNS
SNB-75 CNS = system: SNB-75 CNS
MDA-MB-435 = system: MDA-MB-435
SK-MEL-28 melanoma = system: SK-MEL-28 melanoma
A498 renal = system: A498 renal
NCI-H226 lung = system: NCI-H226 lung
HT29 colon = system: HT29 colon
MDA-MB-231 breast = system: MDA-MB-231 breast
RPMI-8226 leukemia = system: RPMI-8226 leukemia
OVCAR-5 ovarian = system: OVCAR-5 ovarian
TK-10 renal = system: TK-10 renal
ACHN renal = system: ACHN renal
MCF7 breast = system: MCF7 breast
HCC-2998 colon = system: HCC-2998 colon
COLO 205 colon = system: COLO 205 colon
NCI-H460 lung = system: NCI-H460 lung
SW-620 colon = system: SW-620 colon
OVCAR-3 ovarian = system: OVCAR-3 ovarian
HCT-15 colon = system: HCT-15 colon
EKVX NSCLC = system: EKVX NSCLC
CAKI-1 renal = system: CAKI-1 renal
NCI-H522 lung = system: NCI-H522 lung
SK-MEL-2 melanoma = system: SK-MEL-2 melanoma
HL-60(TB) leukemia = system: HL-60(TB) leukemia
A549 NSCLC = system: A549 NSCLC
HS 578T breast = system: HS 578T breast
SF-295 CNS = system: SF-295 CNS
MALME-3M melanoma = system: MALME-3M melanoma
SR leukemia = system: SR leukemia
BT-549 breast = system: BT-549 breast
T-47D breast = system: T-47D breast
HOP-92 NSCLC = system: HOP-92 NSCLC
SK-MEL-5 melanoma = system: SK-MEL-5 melanoma
KM12 colon = system: KM12 colon
U251 CNS = system: U251 CNS
UACC-257 melanoma = system: UACC-257 melanoma
OVCAR-4 ovarian = system: OVCAR-4 ovarian
SK-OV-3 ovarian = system: SK-OV-3 ovarian
SF-268 CNS = system: SF-268 CNS
UACC-62 melanoma = system: UACC-62 melanoma

## COc1cccc(NC(=O)CC(=O)N2N=C(C)C(N=Nc3ccc(S(=O)(=O)CCOS(=O)(=O)O)cc3)C2=O)c1 (configuration not stated)
IGROV1 ovarian
  TGI: 17.3 µM
DU-145 prostate
  TGI: 29.6 µM
OVCAR-8 ovarian
  TGI: 15.5 µM
RXF 393 renal
  TGI: 15.9 µM
HCT-116 colon
  TGI: 13 µM
HOP-62 NSCLC
  TGI: 26 µM
NCI-H23 lung
  TGI: 20.9 µM
LOX IMVI melanoma
  TGI: 4.25 µM
MOLT-4 leukemia
  TGI: > 100 µM
PC-3 prostate
  TGI: 14.5 µM
SN12C renal
  TGI: 20.1 µM
M14 melanoma
  TGI: 20.2 µM
CCRF-CEM leukemia
  TGI: > 100 µM
MDA-N
  TGI: 14 µM
UO-31 renal
  TGI: 24.5 µM
786-0 renal
  TGI: 9.07 µM
SF-539 CNS
  TGI: 28.3 µM
NCI/ADR-RES ovarian
  TGI: > 100 µM
K-562 leukemia
  TGI: > 100 µM
SNB-19 CNS
  TGI: 33.9 µM
SNB-75 CNS
  TGI: 15.5 µM
MDA-MB-435
  TGI: 10.4 µM
SK-MEL-28 melanoma
  TGI: 16.9 µM
A498 renal
  TGI: 22.7 µM
NCI-H226 lung
  TGI: 27.1 µM
HT29 colon
  TGI: 13.8 µM
MDA-MB-231 breast
  TGI: 25.6 µM
RPMI-8226 leukemia
  TGI: 21 µM
OVCAR-5 ovarian
  TGI: 44.9 µM
TK-10 renal
  TGI: 18.9 µM
ACHN renal
  TGI: 15.7 µM
MCF7 breast
  TGI: 5.71 µM
HCC-2998 colon
  TGI: 29.1 µM
COLO 205 colon
  TGI: 31.5 µM
NCI-H460 lung
  TGI: 17.9 µM
SW-620 colon
  TGI: 12.7 µM
OVCAR-3 ovarian
  TGI: 17 µM
HCT-15 colon
  TGI: 12.1 µM
EKVX NSCLC
  TGI: 31.9 µM
CAKI-1 renal
  TGI: 10.5 µM
NCI-H522 lung
  TGI: 2.48 µM
SK-MEL-2 melanoma
  TGI: 6.23 µM
HL-60(TB) leukemia
  TGI: 6.85 µM
A549 NSCLC
  TGI: 41.1 µM
HS 578T breast
  TGI: 88 µM
SF-295 CNS
  TGI: 30.6 µM
MALME-3M melanoma
  TGI: 23.2 µM
SR leukemia
  TGI: > 100 µM
BT-549 breast
  TGI: 14.5 µM
T-47D breast
  TGI: 24.2 µM
HOP-92 NSCLC
  TGI: 13.2 µM
SK-MEL-5 melanoma
  TGI: 13.3 µM
KM12 colon
  TGI: 36 µM
U251 CNS
  TGI: 17.9 µM
UACC-257 melanoma
  TGI: 23 µM
OVCAR-4 ovarian
  TGI: 62.5 µM

## Nc1nc(NCC2(CO)CCC2)cc(=O)[nH]1
IGROV1 ovarian
  TGI: > 100 µM
DU-145 prostate
  TGI: > 100 µM
OVCAR-8 ovarian
  TGI: > 100 µM
RXF 393 renal
  TGI: > 100 µM
HCT-116 colon
  TGI: > 100 µM
HOP-62 NSCLC
  TGI: > 100 µM
NCI-H23 lung
  TGI: > 100 µM
LOX IMVI melanoma
  TGI: > 100 µM
MOLT-4 leukemia
  TGI: > 100 µM
PC-3 prostate
  TGI: > 100 µM
SN12C renal
  TGI: > 100 µM
M14 melanoma
  TGI: > 100 µM
CCRF-CEM leukemia
  TGI: > 100 µM
SK-OV-3 ovarian
  TGI: > 100 µM
MDA-N
  TGI: > 100 µM
UO-31 renal
  TGI: > 100 µM
786-0 renal
  TGI: > 100 µM
NCI/ADR-RES ovarian
  TGI: > 100 µM
K-562 leukemia
  TGI: > 100 µM
SNB-19 CNS
  TGI: > 100 µM
SNB-75 CNS
  TGI: > 100 µM
MDA-MB-435
  TGI: > 100 µM
SK-MEL-28 melanoma
  TGI: > 100 µM
A498 renal
  TGI: > 100 µM
NCI-H226 lung
  TGI: > 100 µM
HT29 colon
  TGI: > 100 µM
MDA-MB-231 breast
  TGI: > 100 µM
SF-268 CNS
  TGI: > 100 µM
RPMI-8226 leukemia
  TGI: > 100 µM
OVCAR-5 ovarian
  TGI: > 100 µM
MCF7 breast
  TGI: > 100 µM
HCC-2998 colon
  TGI: > 100 µM
COLO 205 colon
  TGI: > 100 µM
NCI-H460 lung
  TGI: > 100 µM
SW-620 colon
  TGI: > 100 µM
OVCAR-3 ovarian
  TGI: > 100 µM
HCT-15 colon
  TGI: > 100 µM
EKVX NSCLC
  TGI: > 100 µM
CAKI-1 renal
  TGI: > 100 µM
NCI-H522 lung
  TGI: > 100 µM
SK-MEL-2 melanoma
  TGI: > 100 µM
HL-60(TB) leukemia
  TGI: > 100 µM
A549 NSCLC
  TGI: > 100 µM
HS 578T breast
  TGI: > 100 µM
UACC-62 melanoma
  TGI: > 100 µM
SF-295 CNS
  TGI: > 100 µM
MALME-3M melanoma
  TGI: > 100 µM
SR leukemia
  TGI: > 100 µM
BT-549 breast
  TGI: > 100 µM
T-47D breast
  TGI: > 100 µM
HOP-92 NSCLC
  TGI: > 100 µM
SK-MEL-5 melanoma
  TGI: > 100 µM
KM12 colon
  TGI: > 100 µM
U251 CNS
  TGI: > 100 µM
UACC-257 melanoma
  TGI: > 100 µM
OVCAR-4 ovarian
  TGI: > 100 µM
